Source: patent US20240376154A1, “BIS-INTERCALATING PEPTIDES, CONJUGATES AND METHODS OF USE” (ZYMEWORKS BC INC., priority 2023, published 2024)

Tests used:
[1] = system: tumour cells (at least 4 of a panel of ovarian, breast, lung, pancreatic, placenta, colon cell lines); assay: In vitro cytotoxicity (cell proliferation, CellTiter-Glo), average over tumour cell line panel; assay type: cell-based; conditions: average pIC50 on all cell lines tested; 5 nights incubation; CellTiter-Glo
Protocol: The ability of representative compounds of Formula I to inhibit proliferation of tumour cells in vitro was evaluated in at least 4 of the following cell lines: OVCAR-3 (ovarian, ATCC), SKOV-3 (ovarian, ATCC), IGROV-1 (ovarian, national research council of Canada (NRC)), OV-90 (ovarian, ATCC), OVKATE (Ovarian, Japanese Collection of Research Bioresources (JCRB) (JCRB1044)), JIMT-1 (breast, NRC), SK-BR-3 (breast, ATCC), T-47D (breast, ATCC), ZR-75-1 (breast, ATCC), MDA-MB-468 (breast, AddexBio), BT-20 (breast, ATCC), BT-474 (breast, NRC), MDA-MB-175 (breast, AddexBio), A549 (lung, collaborator), NCI-H226 (lung, NRC), NCI-H661 (lung, NRC), NCI-H1573 (lung, ATCC). NCI-H1563 (lung, ATCC), H358 (lung, collaborator), EBC-1 (lung, Xenotech), H1299 (lung, NRC), NCI-H292 (lung, ATCC), HCC817 (lung, ATCC), NCI-H441 (lung, ATCC), MIA-PaCa-2 (pancreatic, ATCC), BxPC-3 (pancreatic, ATCC), Panc-1 (pancreatic, ATCC), AsPC-1 (pancreatic, ATCC), JEG-3 (placenta, AddexBio), HT-29 (colon, ATCC).
Cells were cultured per vendor instructions and in log-phase growth were detached by brief incubation in 0.05% trypsin, then resuspended in respective culturing media at 20,000 cells/mL (except for ZR-75 cells, which were resuspended at 10,000 cells/mL). 50 μL/well (˜1000 cells/well) were transferred to sterile tissue culture (TC)-treated 384-well plates (ThermoFisher Scientific, Catalogue #164610) and incubated overnight at 37° C. with 5% CO2 to allow the cells to adhere to the plate surface. The next day, in a sterile, V-bottom, 96-well plate, test articles were titrated 1:3 in complete growth medium, creating a 10-point dose response titration with compounds at 3.5-times the desired final concentration. 20 μL from each dilution were added to the 384-well plate containing the seeded cells and these plates were incubated at 37° C. with 5% CO2 for 5 nights. Cell viability was quantified by first incubating with 15 μL/well of CellTiter-Glo® (Promega, Catalogue #G7572) for 30 minutes, then measuring luminescence with a microplate luminometer (BioTek® Synergy™ H1 Microplate Reader). IC50 values were determined by GraphPad Prism (GraphPad Software, San Diego, CA).
The results are presented in Table 7.1 and discussed in Example 7. Table 7.1 presents the results as average pIC50 values. pIC50=−log (IC50), thus, for example, pIC50=9 is equivalent to IC50=1 nM, and pIC50=6 is equivalent to IC50=1 μM.

herring sperm DNA = assay: DNA melting temperature by differential scanning calorimetry (DSC); assay type: binding; conditions: DSC; herring sperm DNA; DNA melting temperature = 68° C.
Protocol: Representative compounds prepared as described in Example 2 were assessed in two complementary DNA-binding assays. Increased melting temperature of herring sperm DNA was measured using differential scanning calorimetry (DSC) and binding kinetics were determined by surface plasmon resonance (SPR) using a short DNA hairpin sequence.
DSC experiments were conducted as described in Leng, 2003, Nucleic Acids Res., 31 (21): […], using a Nano DSC (TA Instruments, New Castle, DE) and analyzed using the NanoAnalyze™ software package. Herring sperm DNA solution (Invitrogen 15634017, 10 mg/mL) was diluted to 1 mg/mL (1.4 mM base pair) in BPE buffer (6 mM Na2HPO4, 2 mM NaH2PO4, 1 mM Na4EDTA, pH 7.0). Test articles (20 μL, 10 mM in DMSO) were added and allowed reach equilibrium binding (>3 h), any insoluble material was removed by low-speed centrifugation, then samples were heated from 25 to 110° C. at a scan rate of 1° C./min. Melting curves were plotted and melting temperature was determined using NanoAnalyze™.

[2] = Lipophilicity by experimental HPLC retention time; assay type: physicochemical; conditions: HPLC retention time as measure of lipophilicity; C18, 10 to 90% CH3CN/H2O with 0.1% FA over 25 min
Protocol: The ability to kill neighboring cells (i.e. bystander effect) is an important property for ADC payloads. For a payload comprising a compound of Formula I to be capable of bystander killing, membrane permeability (or transport) is required and the ability of compounds of Formula I to cross cell membranes and exert a cytotoxic effect was expected to be heavily influenced by lipophilicity.
Compounds were analyzed using an Agilent 1260 HPLC (Agilent Technologies, Inc., Santa Clara, CA) equipped with a Diode array detector and using a Phenomenex Kinetex EVO C18 150×4.6, 2.6 μm column (Phenomenex, Torrance, CA), eluting with 10 to 90% CH3CN/H2O with 0.1% FA over 25 min.

[3] = amide bond; 32-membered ring

| Molecule | ring closure, isolated yield [3] | other results |
| --- | --- | --- |
| CC(C)[C@H]1C(=O)O[C@H](C)[C@@H](NC(=O)c2nc3ccccc3cc2O)C(=O)N2CCCC[C@H]2C(=O)NCC(=O)N(C)CC(=O)N(C)[C@@H](C(C)C)C(=O)O[C@H](C)[C@@H](NC(=O)c2nc3ccccc3cc2O)C(=O)N2CCCC[C@H]2C(=O)NCC(=O)N(C)CC(=O)N1C [Compound 22, N,N′-((7R,8R,11S,19aS,26R,27R,30S,38aS)-11,30-diisopropyl-8,12,15,27,31,34-hexamethyl-6,10,13,16,19,25,29,32,35,38-decaoxodotriacontahydro-2H,6H,10H,25H-dipyrido[2,1-b1: 2′,1′-l][1,17]dioxa[4,7,10,13,20,23,26,29]octaazacyclodotriacontine-7,26-diyl)bis(3-hydroxyquinoline-2-carboxamide)] | – | pIC50 (average) [1]: 7.6; DNA melt (° C.) (herring sperm DNA): 85 °C; HPLC [2]: 21.6 min |
| Benzyl tert-butyl ((7R,19aS,26R,30S,38aS)-30-isopropyl-11,11,12,15,31,34-hexamethyl-6,10,13,16,19,25,29,32,35,38-decaoxohexatriacontahydro-2H,6H-dipyrido[1,2-a:1′,2′-q][1,4,7,10,13,17,20,23,26,29]decaazacyclodotriacontine-7,26-diyl)dicarbamate | 37% | – |
| Benzyl tert-butyl ((7′R,19a'S,26′R,30'S,38a'S)-30′-isopropyl-12′,15′,31′,34′-tetramethyl-6′,10′,13′,16′,19′,25′,29′,32′,35′,38′-decaoxotetratriacontahydro-2′H,6′H,12′H-spiro[cyclobutane-1,11′-dipyrido[1,2-a:1′,2′-q][1,4,7,10,13,17,20,23,26,29]decaazacyclodotriacontine]-7′,26′-diyl)dicarbamate | 43% | – |
| Benzyl tert-butyl ((7′R,19a'S,26′R,30'S,38a'S)-30′-isopropyl-12′,15′,31′,34′-tetramethyl-6′,10′,13′,16′,19′,25′,29′,32′,35′,38′-decaoxotetratriacontahydro-2′H,6′H,12′H-spiro[cyclopropane-1,11′-dipyrido[1,2-a:1′,2′-q][1,4,7,10,13,17,20,23,26,29]decaazacyclodotriacontine]-7′,26′-diyl)dicarbamate | 48% | – |
| Benzyl tert-butyl ((13S,16R,19aS,32S,35R,38aS)-13,32-diisopropyl-8,14,27,33-tetramethyl-6,9,12,15,19,25,28,31,34,38-decaoxohexatriacontahydro-2H,6H-dipyrido[2,1-c: 2′,1′-s][1,4,7,10,13,17,20,23,26,29]decaazacyclodotriacontine-16,35-diyl)dicarbamate | 57% | – |
| Bis(4-nitrobenzyl) ((7R,11S,19aS,26R,30S,38aS)-11,30-diisopropyl-12,15,31,34-tetramethyl-6,13,16,19,25,32,35,38-octaoxodotriacontahydro-2H,6H,10H,25H-dipyrido[2,1-b1: 2′,1′-l][1,17]dioxa[4,7,10,13,20,23,26,29]octaazacyclodotriacontine-7,26-diyl)dicarbamate | 68% | – |
| Di-tert-butyl ((7R,8R,11S,19aS,26R,27R,30S,38aS)-11,30-diisopropyl-8,12,15,27,31,34-hexamethyl-6,10,13,16,19,25,29,32,35,38-decaoxodotriacontahydro-2H,6H,10H,25H-dipyrido[2,1-b1: 2′,1′-l][1,17]dioxa[4,7,10,13,20,23,26,29]octaazacyclodotriacontine-7,26-diyl)dicarbamate | 50% | – |
| Di-tert-butyl ((7R,11S,19aS,26R,30S,38aS)-11,30-diisopropyl-9,12,15,28,31,34-hexamethyl-6,10,13,16,19,25,29,32,35,38-decaoxohexatriacontahydro-2H,6H-dipyrido[1,2-a:1′,2′-q][1,4,7,10,13,17,20,23,26,29]decaazacyclodotriacontine-7,26-diyl)dicarbamate | 65% | – |
| Di-tert-butyl ((7R,11S,19aS,26R,30S,38aS)-11,30-diisopropyl-12,15,31,34-tetramethyl-6,10,13,16,19,25,29,32,35,38-decaoxotetratriacontahydro-2H,6H,10H-dipyrido[2,1-b1: 2′,1′-l][1]oxa[4,7,10,13,17,20,23,26,29]nonaazacyclodotriacontine-7,26-diyl)dicarbamate | 86% | – |
| Dibenzyl ((7R,11S,19aS,26R,30S,38aS)-11-((R)-1-(tert-butoxy)ethyl)-30-isopropyl-12,15,31,34-tetramethyl-6,10,13,16,19,25,29,32,35,38-decaoxohexatriacontahydro-2H,6H-dipyrido[1,2-a:1′,2′-q][1,4,7,10,13,17,20,23,26,29]decaazacyclodotriacontine-7,26-diyl)dicarbamate | 91% | – |
| Tert-butyl (4-nitrobenzyl) ((7R,11R,19aS,26R,30S,38aS)-11-((S)-sec-butyl)-30-isopropyl-12,15,31,34-tetramethyl-6,13,16,19,25,29,32,35,38-nonaoxotetratriacontahydro-2H,6H,10H-dipyrido[2,1-b1: 2′,1′-l][1]oxa[4,7,10,13,17,20,23,26,29]nonaazacyclodotriacontine-7,26-diyl)dicarbamate | 72% | – |
| Tert-butyl (4-nitrobenzyl) ((7R,11S,19aS,26R,30S,38aS)-11,30-diisopropyl-12,15,31,34-tetramethyl-6,10,13,16,19,25,32,35,38-nonaoxodotriacontahydro-2H,6H,10H,25H-dipyrido[2,1-b1: 2′,1′-l][1,17]dioxa[4,7,10,13,20,23,26,29]octaazacyclodotriacontine-7,26-diyl)dicarbamate | 50% | – |
| Tert-butyl (4-nitrobenzyl) ((7R,11S,19aS,26R,30S,38aS)-11,30-diisopropyl-12,15,31,34-tetramethyl-6,13,16,19,25,29,32,35,38-nonaoxotetratriacontahydro-2H,6H,10H-dipyrido[2,1-b1: 2′,1′-l][1]oxa[4,7,10,13,17,20,23,26,29]nonaazacyclodotriacontine-7,26-diyl)dicarbamate | 68% | – |
| di-tert-butyl ((7R,11S,19aS,26R,30S,38aS)-11,30-diisopropyl-12,15,31,34-tetramethyl-6,10,13,16,19,25,29,32,35,38-decaoxohexatriacontahydro-2H,6H-dipyrido[1,2-a:1′,2′-q][1,4,7,10,13,17,20,23,26,29]decaazacyclodotriacontine-7,26-diyl)dicarbamate | 34% | – |
